Values of other authors in patent US8785426B1, “Testosterone gel compositions and related methods” (Upsher-Smith Laboratories, Inc., priority 2013, dated 2014).

Details: reported solubility

C[C@]12CC[C@H]3[C@@H](CCC4=CC(=O)CC[C@@]43C)[C@@H]1CC[C@@H]2O [Testosterone, 17-β-hydroxyandrost-4-en-3-one]
solubility in ethyl alcohol: 0.17 grams per gram ethyl alcohol
